Source: patent publication US20210401833A1 (IMBRIA PHARMACEUTICALS, INC., priority 2020, published 2021)
Values after ≈ are worked out from the molar mass of the structure shown. Like-named read-outs stand apart in the source and are kept apart here.

Columns and labels:
[1] = 28-day dog study (nonclinical toxicology, NOAEL); assay type: in vivo; settings: for AUC(0-t): po, 200 mg/kg/day
Description: Based on the nonclinical toxicology data, it was considered that subjects in this clinical study were not at unreasonable risk of adverse effects. […] For a 60-kg individual, the NOAEL dose would be 6480 mg. With a 10-fold safety factor applied, this would allow for a maximum recommended starting dose (MRSD) of 648 mg/day. 7,8 The planned starting dose in the current Phase 1 study was 50 mg, equivalent to 0.83 mg/kg/day for a 60-kg subject. This starting dose is less than 10% of the MRSD determined from the dog NOAEL and less than 1% of the dog NOAEL
The relevant animal study was the 28-day dog study where the NOAEL for IMB-1018972 was 200 mg/kg/day.

[2] = human, in vivo, 150 mg
Description: (§1) Data on the performance of the method and stability indicate that the sample results as reported are reliable.

[3] = clinical; settings: human, in vivo; for AUC0-t higher after the 8-hour MR formulation than after the 4-hour MR formulation / AUC0-t lower after the 8-hour MR formulation than after the 4-hour MR formulation / Tmax: po
Description: The blood samples were taken via an indwelling intravenous catheter or by direct venipuncture.
The effect of food on the relative oral bioavailability of IMB-1018972 following a single oral administration was explored. This occurred in the single-dose MR part where subjects received the same dose, first under fasted conditions and then under fed conditions.

[4] = Phase 1 first-in-human study, combined single and multiple IMB-1018972 dose results (SAD, MAD, FE, MR), plasma and urine PK; settings: plasma of subjects that received IMB-1018972
Description: as §1

[5] = pH stability profile of a 1 mg/mL solution of CV-8972 at 23° C.; assay type: physicochemical; settings: for 1st order Kobs / % lost in 25 hrs / Amt. remaining / T5% / T10%: 1 mg/mL, 23° C.
Description: The pH stability profile is summarized and shown in Table 2 for a 1 mg/mL solution of CV-8972 at 23° C.
The hydrolysis proceeds via the first step shown in FIG. 1, as Nicotinic acid and CV-8814 are the only decomposition products generated. The optimal pH for solution stability appears to be around pH 5-5.1 for a 1 mg/mL solution with acid-catalyzed hydrolysis increasing at pH values less than 5.0 and base-catalyzed hydrolysis increasing above pH 5.0.

[6] = Phase 1 first-in-human study, overall safety; assay type: in vivo; settings: after administration as the MR formulations
Description: Safety and tolerability were assessed through AEs, clinical laboratory, vital signs, ECGs, continuous cardiac monitoring (telemetry), and physical examination findings, and any other parameter that was relevant for safety assessment.

[7] = Phase 1 first-in-human study, multiple-dose MR part, safety and tolerability; assay type: in vivo
Description: (§2) AEs were recorded from (first) admission until completion of the follow-up visit. Any clinically significant observations in results of clinical laboratory, 12-lead ECGs, vital signs, or physical examinations were recorded as AEs.
(§3) A treatment-emergent AE (TEAE) was defined as any event not present prior to (the first) administration of the study drug or any event already present that worsened in either severity or frequency following exposure to the study drug.
(§4) The severity of the AEs was rated as mild, moderate, or severe; the relationship between the AEs and the study drug was indicated as none, unlikely, possibly, likely, or definitely. Adverse events assessed as possibly, likely, or definitely were considered related to the study drug; AEs assessed as none or unlikely were considered not related to the study drug.

[8] = in vitro CaCo2 permeability; assay type: in vitro ADME; settings: human, Caco-2
[9] = system: CaCo2; assay: in vitro CaCo2 permeability; assay type: in vitro ADME
[10] = Phase 1 first-in-human study, single-dose MR part, safety and tolerability; assay type: in vivo
Description: The subjects received a single oral dose of 1 of 4 MR formulations of IMB-1018972 under fasted conditions (an overnight fast of at least 10 hours) on Days 1, 4, 7, and 10 in a fixed order that was the same for all subjects. The MR formulation of IMB-1018972 to be administered on Day 13 under fed conditions was 1 of the 4 MR formulations administered on Days 1, 4, 7, and 10 under fasted conditions.
as §2, §3, §4

[11] = aqueous solubility of CV-8972; assay type: physicochemical; settings: aqueous solution, aqueous buffer
Text: FIG. 2 is graph of the aqueous solubility of CV-8972 as a function of pH generated via dynamic methods due to instability.

[12] = in vitro stability in biological media across species; assay type: in vitro ADME
Text: Additional and extensive in vitro stability work has been carried out across species to evaluate the impact of GI tract, liver tissues, and plasma on half-life as measured by in vitro clearance of CV-8972 in various biological media.

[13] = solution stability (decomposition kinetics) in simulated GI media at 37° C. and 0.2 mg/mL, HPLC; assay type: physicochemical
Description: The solution stability of CV-8972 was evaluated in multiple media currently used to simulate dissolution and stability conditions in the various sections of the GI tract. As CV-8972 will be subject to hydrolysis as it is dissolving in the GI tract, it will be important to understand these kinetics in terms of designing instant and controlled-release formulations. HPLC methods were used to perform these assessments.
In summary, there may be some protective effect of the components of the FaSSGF, FaSSIF, and FeSSIF, particularly when compared to stability in 0.1N HCl or bicarbonate or phosphate buffer at pH 6-8. On the positive side, the fastest decomposition rate still has a T1/2 of 1.5 hours which should provide enough residence time for release and absorption in the upper GI tract.

## COc1ccc(CN2CCN(CCO)CC2)c(OC)c1OC [CV-8814, 2-[4-[(2,3,4-trimethoxyphenyl)methyl]piperazin-1-yl]ethanol]
[1]; female, dog, in vivo
  AUC(0-t): 653 µg·h/mL
[1]; male, dog, in vivo
  AUC(0-t): 418 µg·h/mL
[2]
  Cmax lower under fed conditions relative to fasted conditions: approximately 36%
[3]
  half-life: 3.35 to 4.27 h
  AUC0-t higher after the 8-hour MR formulation than after the 4-hour MR formulation: 6%
  AUC0-t lower after the 8-hour MR formulation than after the 4-hour MR formulation: 26%
[3]; 200 mg
  Cmax higher under fed conditions relative to fasted conditions: approximately 42%
  Tmax: 2 h

## COc1ccc(CN2CCN(CCOC(=O)c3cccnc3)CC2)c(OC)c1OC [CV-8972, 2-[4-[(2,3,4-trimethoxyphenyl)methyl]piperazin-1-yl]ethyl pyridine-3-carboxylate]
[4]
  IMB-1018972 in plasma samples: could be measured in only few plasma samples
[5]; 1 mg/mL solution
  optimal pH for solution stability: 5-5.1
[5]; pH 2.74, Water
  1st order Kobs: 0.00516 h⁻¹
  % lost in 25 hrs: 12.1%
  Amt. remaining: 0.879 mg/mL
  T5%: 9.9 h
  T10%: 20.4 h
[5]; pH 3.52, 20 mM Phos
  1st order Kobs: 0.00273 h⁻¹
  % lost in 25 hrs: 6.6%
  Amt. remaining: 0.934 mg/mL
  T5%: 18.8 h
  T10%: 38.6 h
[5]; pH 5.05, 20 mM Am. Acetate
  1st order Kobs: 0.00105 h⁻¹
  % lost in 25 hrs: 2.6%
  Amt. remaining: 0.974 mg/mL
  T5%: 48.7 h
  T10%: 100.0 h
[5]; pH 5.64, 20 mM Phos
  1st order Kobs: 0.00248 h⁻¹
  % lost in 25 hrs: 6.0%
  Amt. remaining: 0.94 mg/mL
  T5%: 20.7 h
  T10%: 42.6 h
[5]; pH 6.5, 20 mM Phos
  1st order Kobs: 0.01119 h⁻¹
  % lost in 25 hrs: 24.4%
  Amt. remaining: 0.756 mg/mL
  T5%: 4.6 h
  T10%: 9.4 h
[5]; pH 6.88, 20 mM Phos
  1st order Kobs: 0.02064 h⁻¹
  % lost in 25 hrs: 40.3%
  Amt. remaining: 0.597 mg/mL
  T5%: 2.5 h
  T10%: 5.1 h
[1]; dog, in vivo
  NOAEL at 28 days: 108 mg/kg/day
[1]; dog, in vivo, 28 days
  maximum recommended starting dose (MRSD): 648 mg/day
[1]; from HED
  NOAEL dose for a 60-kg individual: 6480 mg
[1]; in vivo, 28-day dog, oral, read-out: no observed adverse effect level (NOAEL)
  NOAEL at 28 days: 200 mg/kg/day
[6]
  hemodynamic changes and changes in the QTc-interval: no findings of hemodynamic changes, nor changes in the QTc-interval
[7]
  number of TEAEs considered not related to the study drug: 30
  number of TEAEs considered related to the study drug: 10
  number of TEAEs, SOC Gastrointestinal disorders: 9
  number of TEAEs, SOC General disorders and administration site conditions: 4
  number of TEAEs, SOC Musculoskeletal and connective tissue disorders: 4
  number of TEAEs, SOC Nervous system disorders: 9
  number of TEAEs, SOC Renal and urinary disorders (pollakiuria): 4
  number of drug-related TEAEs of pollakiuria: 4
  number of drug-related TEAEs, Nervous system disorders: 2
  severity of TEAEs: All TEAEs were of mild severity
  subjects n (%) with drug-related Nervous system disorders: 2 (16.7%)
  subjects n (%) with drug-related pollakiuria: 4 (33.3%)
  subjects n (%), SOC Gastrointestinal disorders: 5 (41.7%)
  subjects n (%), SOC General disorders and administration site conditions: 4 (33.3%)
  subjects n (%), SOC Musculoskeletal and connective tissue disorders: 4 (33.3%)
  subjects n (%), SOC Nervous system disorders: 7 (58.3%)
  subjects n (%), SOC Renal and urinary disorders (pollakiuria): 4 (33.3%)
  total number of TEAEs: 40
[7]; mild severity
  subjects reporting flushing: 2 (16.7%)
[7]; mild severity, drug-related
  number of TEAEs of flushing: 2
[8]
  Papp: ~29 ×10⁻⁶ cm/s
[9]
  efflux: little evidence of efflux
[10]
  TEAEs of flushing: No TEAEs of flushing were reported
  difference between fasted and fed administration for the number and incidence of TEAEs: no clear difference
  dose or dissolution time dependency of the number and incidence of TEAEs: no apparent dose or dissolution time dependency
  number of TEAEs considered not related to the study drug: 30
  number of TEAEs considered related to the study drug: 7
  number of TEAEs, SOC Gastrointestinal disorders: 5
  number of TEAEs, SOC General disorders and administration site conditions: 11
  number of TEAEs, SOC Nervous system disorders: 8
  number of drug-related TEAEs of ALT increased: 1
  number of drug-related TEAEs of headache: 1
  number of drug-related TEAEs of pollakiuria: 5
  severe TEAEs: No severe TEAEs were reported
  subjects n (%) with drug-related pollakiuria: 2 (16.7%)
  subjects n (%), SOC Gastrointestinal disorders: 4 (33.3%)
  subjects n (%), SOC General disorders and administration site conditions: 7 (58.3%)
  subjects n (%), SOC Nervous system disorders: 7 (58.3%)
[10]; all treatments
  total number of TEAEs: 37
[11]; free base, read-out: saturated base solubility / minimal solubility as the free base
  solubility: 5000 to 10000 µg/mL (≈ 12 to 24.1 mM)
[11]; salt, read-out: solubility as the salt
  solubility: > 100000 µg/mL
[12]
  stability in GI tract, liver tissues and plasma (in vitro clearance): relatively unstable in the GI tract
[13]; 0.1 M HCl, pH 1.0, no surfactants
  Est Kobs (first order rate constant for hydrolysis): 0.221 h⁻¹
[13]; BiCarb adj (0.1 M HCl neutralized with sodium bicarbonate), pH 6-8.2, no surfactants
  Est Kobs (first order rate constant for hydrolysis): 0.456 h⁻¹
[13]; FaSSGF, pH 1.6
  Est Kobs (first order rate constant for hydrolysis): 0.0143 h⁻¹
[13]; FaSSIF, pH 6.5
  Est Kobs (first order rate constant for hydrolysis): 0.05124 h⁻¹
[13]; FeSSIF, pH 5.8
  Est Kobs (first order rate constant for hydrolysis): 0.00696 h⁻¹
[13]; bicarbonate-adjusted medium (BiCarb adj), BiCarb adj, pH 6-8.2 (fastest decomposition rate)
  half-life at 0.2 mg/mL: 1.5 h

## COc1ccc(CN2CCNCC2)c(OC)c1OC [trimetazidine, reference compound]
[1]; female, dog, in vivo
  AUC(0-t): 13.8 µg·h/mL
[1]; male, dog, in vivo
  AUC(0-t): 15 µg·h/mL
[3]
  half-life: 8.11 to 9.35 h
  AUC0-t higher after the 8-hour MR formulation than after the 4-hour MR formulation: 4%
  AUC0-t lower after the 8-hour MR formulation than after the 4-hour MR formulation: 12%
[3]; 50 mg
  Tmax: 8 h
[3]; 200 mg
  Tmax: 5 h
